Here are results for two molecules from patent US20110135763A1, “Antiseptic formulation especially for prevention of complications associated with skin burns” (priority 2009, published 2011).

One assay has as its target T1, Human Leukocyte Elastase (Homo sapiens, UniProt P08246).
T1 sequence (P08246 30-267): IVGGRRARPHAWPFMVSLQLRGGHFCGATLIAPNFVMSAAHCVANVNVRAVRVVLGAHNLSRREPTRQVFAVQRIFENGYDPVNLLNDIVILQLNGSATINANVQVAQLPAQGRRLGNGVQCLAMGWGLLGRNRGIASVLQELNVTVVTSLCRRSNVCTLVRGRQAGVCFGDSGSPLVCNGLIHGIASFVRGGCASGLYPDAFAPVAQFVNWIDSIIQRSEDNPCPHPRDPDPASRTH
The following applies: Q. Ying et al., 1991; cited from earlier work.

The next assay deals with small capillaries. The experiment in a line: inventor's experiments on the effect of DMSO on blood vessels. The following applies: DMSO in a concentration ranging between 50% and 100%; best results at substantially 100%. The source says:
The higher the DMSO concentration was taken, the better result was achieved. Such phenomenon may effectively contribute to stopping leakage of capillaries and formation of blister, whereas the leakage and blister are the major factors leading to infections and delayed wound healing, and therefore to scar formation. […] The best results have been observed for usage of DMSO in the concentration of substantially 100%.
(d) DMSO (dimethyl sulfoxide) is known as an industrial solvent that has the ability to penetrate plant and animal tissues and to preserve living cells during freezing. It has bacteriostatic, anti-inflammatory, analgesic, radioprotective, fibrinolytic and vasodilative properties, and inhibits cholinesterase and granulation tissue. DMSO also has been used as an agent to increase the penetrability of other substances. […] This capability of DMSO has increased with an increase of the DMSO concentration, and the best results have been observed for usage of DMSO (USP grade) in the concentration essentially of 100%.

Take `C[C@H]1[C@H](C)CC[C@]2(C(=O)O)CC[C@]3(C)C(=CC[C@@H]4[C@@]5(C)CC[C@H](O)C(C)(C)[C@@H]5CC[C@]43C)[C@H]12` [Ursolic acid]: the elastase inhibition result on Human Leukocyte Elastase is given as “potent elastase inhibitor”. On to `C[S+](C)[O-]` [DMSO, dimethyl sulfoxide], for which, in the assay with small capillaries, the “effect on small capillaries” value is “constricts small capillaries”.
